Legend:
[1] = test system: Common Cutworm (Spodoptera litura); test: Insecticidal test on common cutworm (Spodoptera litura); type: in vivo; conditions: 144 h, cabbage leaf immersed, second-instar larvae, counted 6 days after release, 25° C.
Description: Insecticidal Test on Common Cutworm (Spodoptera litura)
(§1) A piece of cabbage leaf was immersed for 30 seconds in a liquid chemical prepared by diluting a test compound to a prescribed concentration. After air-drying, the piece was put into a 7-cm polyethylene cup and second-instar larvae of common cutworms were released thereinto. The polyethylene cups were set in an isothermal chamber thermostated at 25° C. From the release 6 days later, the dead and alive were counted. The test was carried out with two replications of 5 insects per a plot.

[2] = test system: Diamondback Moth (Plutella xylostella); test: Insecticidal test on diamondback moth (Plutella xylostella); type: in vivo; conditions: 144 h, cabbage leaf immersed, second-instar larvae, counted 6 days after release, 25° C.
Description: Insecticidal Test on Diamondback Moth (Plutella xylostella)
as §1, with “diamondback moths” for “common cutworms”

`O=C(Nc1cccc(C(=O)Nc2ccc(OC(C(F)(F)F)C(F)(F)F)nc2Br)c1)c1ccccc1` [Compound No. 1-387, N-[2-bromo-6-(2,2,2-trifluoro-1-trifluoromethylethoxy)-pyridin-3-yl]3-(benzoylamino)benzamide] showed a mortality at 100 ppm [1] of no less than 70% and a mortality at 100 ppm [2] of no less than 70%.
In the case of `Cc1cc(OS(=O)(=O)C(F)(F)F)cc(Br)c1NC(=O)c1cccc(NC(=O)c2ccccc2)c1` [Compound No. 1-369, N-(2-bromo-6-methyl-4-trifluoromethanesulfonyloxyphenyl) 3-(benzoylamino)benzamide], the mortality at 100 ppm [1] is reported as no less than 70% and the mortality at 100 ppm [2] is reported as no less than 70%.
With `Cc1cc(C(F)(C(F)(F)F)C(F)(F)F)cc(C)c1NC(=O)c1cccc(Nc2ccc([N+](=O)[O-])cc2)c1` [Compound No. 5-9, N-[2,6-dimethyl-4-(heptafluoroisopropyl)phenyl]-3-(4-nitrophenylamino)-benzamide] the mortality at 100 ppm [1] was no less than 70% and the mortality at 100 ppm [2] was no less than 70%.
In the case of `O=C(Nc1cccc(C(=O)Nc2ccc3ncsc3c2)c1)c1ccccc1` [Compound No. 1-492, N-benzothiazol-6-yl 3-(benzoylamino)benzamide], the mortality at 100 ppm [1] is reported as no less than 70%.
Work on `O=C(Nc1c(Br)cc(OC(F)(F)C(F)C(F)(F)F)cc1Br)c1cccc(NC(=O)c2ccccc2F)c1` (stereo not drawn) [Compound No. 2-8, N-(2,6-dibromo-4-(1,1,2,3,3,3-hexafluoropropoxy)phenyl) 3-[(2-fluorobenzoyl)amino]benzamide] yielded a mortality at 100 ppm [1] of no less than 70% and a mortality at 100 ppm [2] of no less than 70%.
